Columns and labels:
[1] = system: Erysiphe graminis f. sp. tritici; assay: In vivo fungicidal evaluation, Wheat Powdery Mildew; details: 200 ppm, host plants sprayed, dried, then inoculated; note: ranges in brackets are in %
[2] = system: Puccinia recondita f. sp. tritici; assay: In vivo fungicidal evaluation, Wheat Leaf Rust; details: 200 ppm, host plants sprayed, dried, then inoculated; note: ranges in brackets are in %
[3] = system: Cercospora beticola; assay: In vivo fungicidal evaluation, Sugar Beet Cercospora; details: 200 ppm, host plants sprayed, dried, then inoculated; note: ranges in brackets are in %
[4] = system: Plasmopara viticola; assay: In vivo fungicidal evaluation, Grape Downy Mildew; details: 200 ppm, host plants sprayed, dried, then inoculated; note: ranges in brackets are in %
[5] = system: Pythium ultimum (Pythul); assay: In vitro fungicidal evaluation, mycelial growth inhibition in nutrient broth; format: cell-based; details: 25 ppm, 3-4 days at 21°C, rated visually; note: ranges in brackets are in %
Experimental: (§1) Test compounds are dissolved or suspended in acetone and dispersed into cell well plates containing a suspension of ground fungal mycelia in a nutrient broth. Assay plates are incubated for 3-4 days at 21°C. Growth inhibition is measured visually and is rated using the following scale:
(§2) Untreated controls, solvent blanks and reference standards are included in each test.
(§3) Assay fungi include the plant pathogens, Pythium ultimum (Pythul); Rhizoctonia solani (Rhizso); Fusarium oxysporum f. sp. cucumerinum (Fusoxc); and Pseudocercosporella herpotrichoides (Psdche).
(§4) When more than one test is run, the data are averaged. The compouds evaluated are reported by compound number given in Example 5.

[6] = system: Pseudocercosporella herpotrichoides (Psdche); assay: as above; format: cell-based; details: 25 ppm, 3-4 days at 21°C, rated visually; note: ranges in brackets are in %
Experimental: as §1, §2, §3, §4

[7] = system: Fusarium oxysporum f. sp. cucumerinum (Fusoxc); assay: as above; format: cell-based; details: 25 ppm, 3-4 days at 21°C, rated visually; note: ranges in brackets are in %
Experimental: as §1, §2, §3, §4

[8] = system: Rhizoctonia solani (Rhizso); assay: as above; format: cell-based; details: 25 ppm, 3-4 days at 21°C, rated visually; note: ranges in brackets are in %
Experimental: as §1, §2, §3, §4

[9] = system: Pyricularia oryzae; format: in vivo; details: 200 ppm, host plants sprayed, dried, then inoculated
[10] = system: Alternaria solani; assay: In vivo fungicidal evaluation, Tomato Early Blight; details: 200 ppm, host plants sprayed, dried, then inoculated; note: ranges in brackets are in %
[11] = system: Botrytis cinerea; assay: In vivo fungicidal evaluation, Pepper Botrytis; details: 200 ppm, host plants sprayed, dried, then inoculated; note: ranges in brackets are in %
[12] = system: Venturia inaequalis; assay: In vivo fungicidal evaluation, Apple Scab; details: 200 ppm, host plants sprayed, dried, then inoculated; note: ranges in brackets are in %

| Substance | WPM (Wheat Powdery Mildew) disease control rating [1] | WLR (Wheat Leaf Rust) disease control rating [2] | SBC (Sugar Beet Cercospora) disease control rating [3] | GDM (Grape Downy Mildew) disease control rating [4] | PHTHUL growth inhibition rating [5] | PSDCHE growth inhibition rating [6] | FUSOXC growth inhibition rating [7] | RHIZSO growth inhibition rating [8] | RB (Rice Blast) disease control rating [9] | TEB (Tomato Early Blight) disease control rating [10] | PB (Pepper Botrytis) disease control rating [11] | AS (Apple Scab) disease control rating [12] |
| --- | --- | --- | --- | --- | --- | --- | --- | --- | --- | --- | --- | --- |
| Bis(p-fluorophenyl)methyl(5-nitroisoquinolinio)boron [Compound 15] | 0 (0) | 0 (0) | 7 (90 - 95) | 0 (0) | 9 (100) | 9 (100) | 9 (100) | 9 (100) | 3 (30 - 44) | 4 (45 - 59) | 9 (100) | 9 (100) |
| Butoxy(3-methylpyridinio)diphenylboron [Compound 10] | 0 (0) | 0 (0) | 0 (0) | 3 (30 - 44) | 9 (100) | 7 (90 - 99) | 9 (100) | 9 (100) | 0 (0) | 0 (0) | 6 (75 - 89) | 0 (0) |
| Butoxy(4-isopropylpyridinio)diphenylboron [Compound 11] | 0 (0) | 0 (0) | 0 (0) | 0 (0) | 9 (100) | 7 (90 - 99) | 9 (100) | 9 (100) | 0 (0) | 0 (0) | 4 (45 - 59) | 8 (96 - 99) |
| Butoxy(4-methylpyridinio)diphenylboron [Compound 9] | 0 (0) | 0 (0) | 0 (0) | 0 (0) | 9 (100) | 0 (0) | 9 (100) | 0 (0) | 0 (0) | 0 (0) | 6 (75 - 89) | 0 (0) |
| Chloro(isoquinolinio)di-p-tolylboron [Compound 12] | 0 (0) | 0 (0) | 7 (90 - 95) | 0 (0) | 7 (90 - 99) | 5 (60 - 89) | 7 (90 - 99) | 7 (90 - 99) | 0 (0) | 0 (0) | 0 (0) | 0 (0) |
| Hydroxy(3-butylpyridinio)diphenylboron [Compound 7] | 5 (60 - 74) | 5 (60 - 74) | 0 (0) | 0 (0) | 9 (100) | 0 (0) | 9 (100) | 9 (100) | 6 (75 - 89) | 0 (0) | 0 (0) | 6 (75 - 89) |
| Hydroxy(4-isopropylpyridinio)diphenylboron [Compound 8] | 0 (0) | 0 (0) | 0 (0) | 4 (45 - 59) | 9 (100) | 0 (0) | 9 (100) | 7 (90 - 99) | 6 (75 - 89) | 0 (0) | 0 (0) | 0 (0) |

Source: patent EP0624315B1, “Diaryl(pyridinio and isoquinolinio) boron fungicidal agents” (AMERICAN CYANAMID COMPANY, priority 1993, dated 1994)
